Reference: US8754233B2, “Pyrazolylbenzothiazole derivatives and their use as therapeutic agents” (Dermira (Canada), Inc., priority 2002, dated 2014)

Assays:
HUVEC = HUVEC on Matrigel, VEGF 1 ng/mL, 5 hours
Method: Angiogenesis, the formation of new blood vessels from pre-existing endothelium, is a critical process involved in numerous physiological and pathological conditions. Disruption of this tightly regulated process has been implicated in both chronic inflammation and solid tumour growth. The Matrigel™ morphogenesis assay is an in vitro model used to mimic the process by which endothelial cells form capillaries in vivo. Human umbilical vein endothelial cells (HUVECs) were plated over matrigel, a complex mixture of solubilized basement membrane components, and cultured in serum poor medium with specific growth factors and in the presence of the test compound. […] After 5 hours of incubation in a 5% CO2-humidified atmosphere at 37° C., the three-dimensional organization of the cells (the capillary-like structures) was examined using an inverted photomicroscope. The cells were fixed with crystal violet (0.05% in 20% ethanol) and photographed using a digital camera. Qualitative analysis was accomplished by comparing the pattern, size and integrity of the vessels formed in the test wells with those of the VEGF control wells. Quantitative analysis was performed on the images collected using the Image-Pro Plus software program.

PC3 Cells = assay: Tumor cell migration assay; assay type: cell-based; conditions: Homo sapiens, PC-3, 25 μM compound
Method: The invasion test system (BD Bioscience's BioCoat™ FluoroBlok™ Invasion System including BD BioCoat™ Matrigel™ Invasion Chambers with the fluorescence blocking membrane FluoroBlok™ 24-Multiwell Insert System™) is removed from the package from −20° C. storage and allowed to warm to ambient temperature. PBS is added to the interior of the inserts and they are allowed to rehydrate for 2 hours at 37° C. The medium is then removed and 450 μL cell suspensions of tumor cells (grown to 50-70% confluence, trypsinized, and resuspended in medium without serum at 1×10^6/mL) is added to the top chamber. Test compounds are added to the top chamber at 10× the desired final concentration in 50 μL volumes. DMSO acts as the control. […]
Data is expressed as fluorescence units (FU) from the sum of middle 25 areas per 24-well or as percentage of invasion inhibition by following formula: % of invasion inhibition=100−FU of compound treated cell invasion/FU of DMSO treated cell invasion*100.
Tumor cell migration assay was conducted in the similar way as described in Example 16 except that the plates used were constructed with only a porous membrane dividing a top and bottom chamber without the additional thin Matrigel™ layer on top of the membrane (BD Fluoroblock™ plates). The percent inhibition of migration was determined in the same way as illustrated in Example 16.

ILK = ILK (Homo sapiens (Human), UniProt Q13418); assay: Inhibition of ILK in vitro enzyme assay; conditions: read-out: IC50 avg. value; recombinant ILK, [γ-32P]-ATP, 15 minutes at ambient temperature
ILK, sequence (Q13418 whole entry): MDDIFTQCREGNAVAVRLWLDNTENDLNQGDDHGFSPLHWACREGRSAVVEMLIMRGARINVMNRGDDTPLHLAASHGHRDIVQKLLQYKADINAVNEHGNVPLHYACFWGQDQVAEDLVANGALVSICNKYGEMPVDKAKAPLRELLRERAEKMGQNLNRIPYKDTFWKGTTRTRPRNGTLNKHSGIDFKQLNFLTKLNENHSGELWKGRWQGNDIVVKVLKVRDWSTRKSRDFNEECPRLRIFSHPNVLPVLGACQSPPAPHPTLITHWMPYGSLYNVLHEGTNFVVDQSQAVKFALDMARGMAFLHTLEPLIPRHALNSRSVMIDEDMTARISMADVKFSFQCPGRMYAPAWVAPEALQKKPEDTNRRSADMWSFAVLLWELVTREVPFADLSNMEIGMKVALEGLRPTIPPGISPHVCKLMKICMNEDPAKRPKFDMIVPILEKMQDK
From the text: The target ILK is a full-length recombinant protein expressed in Hi5 insect cells by baculovirus infection. Recombinant ILK protein was expressed using cultured insect cells and a baculovirus expression system. […] This ILK transfer construct was then co-transfected with BaculoGold™ DNA (Pharmingen) into Sf9 insect cells (Invitrogen) and a high titre preparation of GST-ILK recombinant baculovirus was produced by amplification in Sf9 cells. Liter scale expression of GST-ILK recombinant protein was done in 1000 mL spinner flasks (Bellco) by infection of Hi5 insect cells (Invitrogen) grown in Ex-Cell™ 400 serum free media (JRH Biosciences) at a multiplicity of infection of approximately 5. […]
From each assay mixture, 10 μL of assay mixture was spotted onto Millipore Multiscreen-PH™ opaque plates and washed twice for 10 minutes in 1% phosphoric acid. The plates were dried at 40° C. for 30 minutes, then substrate-phosphate complexes were quantitated by scintillation counting. […]
Inhibition of ILK by the test compounds is measured by scintillation counting of the incorporation of radioactive phosphate onto a specific substrate which is immobilized onto a filter paper at the end of the assay. […]
The “baseline activity” is the amount of radioactivity incorporated in the absence of a target inhibitor.

ConA 1° splenocytes = assay: Survival of ConA 1° splenocytes (cytotoxicity by MTS staining); assay type: cell-based, mouse; conditions: Mus musculus, Splenocyte, ConA-stimulated splenocytes
Method: The working concentration of ConA was […]. A 20× working concentration of Concanavalin A was […] was prepared using RPMI-5. The test compounds, dimethylsulfoxide (DMSO) negative vehicle control and staurosporine positive control were diluted twenty times using RPMI-5. Ten μL each of DMSO and staurosporine were combined with 180 μl of medium containing splenocytes in the wells, and 10 μl of 50 μg/ml ConA was immediately added. Medium without ConA was added to the control wells. […] The plates were incubated at 37° C. in 5% CO2 in humidified conditions overnight (18-24 hours) for INFγ.
(MTS). The MTS solution was made fresh and under low light. The electron coupling reagent phenazine methosulfate (PMS) was added at the time of the assay. Twenty μL of MTS solution per 100 μl of tissue culture medium was added to each well. The plates were incubated 37° C. for 4 hours for unstimulated and 18-24 ConA stimulated splenocytes. The absorbance was read at 490 nm wavelength. A kit available to do this assay is “CellTiter 96® AQ Kit AQueous Kit (G5421)” by Promega.

IL-12 on macrophages = assay: Inhibition of IL-12 release from stimulated macrophages; assay type: cell-based, mouse; conditions: Mus musculus, Macrophage; LPS and IFN-γ stimulated primary macrophages, ELISA
Method: Peritoneal exudate macrophages were isolated by peritoneal lavage with ice-cold sterile physiological saline 24 hours after intraperitoneal injection of BALB/c mice with 0.5 mL of sterile Zymosan A (1 mg/0.5 mL 0.9% saline). […] Murine primary macrophage are activated following incubation with LPS in the presence of sub-optimal doses of IFN-γ. Upon activation, macrophages participate actively in the onset of inflammation by releasing bioactive molecules that amplify the initial inflammatory response. […] Briefly, IL-12 levels in the supernatants from stimulated macrophages were determined with PharMingen's OptEIA™ ELISA set developed using an anti-mouse IL-12 antibody pair and mouse rIL-12 standard (PharMingen). Maxisorp™ F16 multiwell strips (Nunc, Roskilde, Denmark) were coated with anti-mouse IL-12 capture Ab (at recommended concentration) in 0.1 M NaHCO3, pH 9.5, 100 μL/well, overnight at 4° C. […] Plates were washed 3× with PBST and duplicate samples (100 μL/well) or standards (100 μL/well) in diluent buffer were incubated for 2 h. Plates were washed five times with PBST and incubated with biotinylated anti-mouse IL-12 and avidin-horseradish peroxidase (HRP) conjugate (at concentrations recommended by the manufacturer) for 1 h. […] Peritoneal exudate macrophages were isolated by peritoneal lavage with ice-cold sterile physiological saline 24 hours after intraperitoneal injection of BALB/c mice with 0.3 ml of sterile zymosan A (1 mg/0.5 mL 0.9% saline). […] All treatments were replicated six times. Cells were incubated for an additional 24 hours, and cell free culture supernatants from each well were collected for NO and cytokine determination. The remaining cells were stained with crystal violet to determine effect of the compound on cell survival.

macrophages = assay: Survival of macrophages; assay type: cell-based, mouse; conditions: Mus musculus, Macrophage; stimulated primary macrophages
Method: Peritoneal exudate macrophages were isolated by peritoneal lavage with ice-cold sterile physiological saline 24 hours after intraperitoneal injection of BALB/c mice with 0.3 ml of sterile zymosan A (1 mg/0.5 mL 0.9% saline). […] 1.5×10^5 cells/well were seeded in 96-well plates and followed by 3 hour incubation at 37° C. with 5% CO2 (macrophages were allowed to attach) cells were stimulated with LPS ([…]/mL) and IFN-γ (100 U/mL) in the absence or presence of the test compounds. All treatments were replicated six times. Cells were incubated for an additional 24 hours, and cell free culture supernatants from each well were collected for NO and cytokine determination. The remaining cells were stained with crystal violet to determine effect of the compound on cell survival.

[1] = test system: Nitric Oxide On Stimulated Macrophages; assay: Inhibition of nitric oxide on stimulated macrophages; assay type: cell-based; conditions: Mus musculus, Macrophage, 25 μM compound
Method: Peritoneal exudate macrophages were isolated by peritoneal lavage with ice-cold sterile physiological saline 24 hours after intraperitoneal injection of BALB/c mice with 0.3 ml of sterile zymosan A (1 mg/0.5 mL 0.9% saline). […] All treatments were replicated six times. Cells were incubated for an additional 24 hours, and cell free culture supernatants from each well were collected for NO and cytokine determination. The remaining cells were stained with crystal violet to determine effect of the compound on cell survival. […] The absorbance at 550 nm was determined. All measurements were performed six times.

With `Nc1n[nH]c(N)c1-c1nc2ccccc2s1` [4-Benzothiazol-2-yl-1H-pyrazole-3,5-diamine] the “% Inhibition of angiogenesis” value (HUVEC) was 32%.
`Oc1ccc(-c2n[nH]cc2-c2nc3ccccc3s2)c(O)c1` [4-(4-Benzothiazol-2-yl-1H-pyrazol-3-yl)-benzene-1,3-diol] gave an inhibition at 25 µM (PC3 Cells) of 44.8% and an IC50 (ILK) of 3.3 µM.
Molecule `Nc1[nH]nc(-c2ccncc2)c1-c1nc2ccccc2s1` [4-Benzothiazol-2-yl-5-pyridin-4-yl-2H-pyrazol-3-ylamine] has an IC50 (ConA 1° splenocytes) greater than 25 µM, an IC50 (IL-12 on macrophages) greater than 25 µM and an IC50 (macrophages) greater than 25 µM.
`CSc1[nH]nc(N)c1-c1nc2ccccc2s1` [4-Benzothiazol-2-yl-5-methylsulfanyl-1H-pyrazol-3-ylamine] was tested, and the “% Inhibition of angiogenesis” value (HUVEC) was 84%.
For `Nc1n[nH]c(N2CCCC2)c1-c1nc2ccccc2s1` [4-Benzothiazol-2-yl-5-pyrrolidin-1-yl-1H-pyrazol-3-ylamine], the “% Inhibition of angiogenesis” value (HUVEC) was 50%.
Work on `Nc1n[nH]c(Nc2ccc3ncccc3c2)c1-c1nc2ccccc2s1` [4-Benzothiazol-2-yl-N^5-quinolin-6-yl-1H-pyrazole-3,5-diamine] yielded an inhibition at 25 µM (PC3 Cells) of 81% and an inhibition at 25 µM [1] of 66.1%.
With `Cc1[nH]nc(N)c1-c1nc2ccccc2s1` [4-Benzothiazol-2-yl-5-methyl-1H-pyrazol-3-ylamine] the “% Inhibition of angiogenesis” value (HUVEC) was 64%.
